“And” between values parts separate entries of the source, which are not always exact repeats. Equal values may be shown once.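 How tested: cells in 96-well plates exposed to compound for 48 hours at five concentrations. At the GI50, growth is halved.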 The source made the active and inactive calls. Cut-off read from the data, not from the text of the source: active = GI50 up to about 1.1 µM and inactive = higher.
Experiments:
Assay in all cases: NCI anticancer screen, dose series, 48 h
A498 = system: A498
CCRF-CEM = system: CCRF-CEM
HCC 2998 = system: HCC 2998
HCT-116 = system: HCT-116
HOP-92 = system: HOP-92
K562 = system: K562
M14 = system: M14
MDA-N = system: MDA-N
NCI-H23 = system: NCI-H23
OVCAR-4 = system: OVCAR-4
OVCAR-8 = system: OVCAR-8
SF-295 = system: SF-295
SK-MEL-5 = system: SK-MEL-5
SNB-75 = system: SNB-75
SR = system: SR
SW-620 = system: SW-620
U-251 = system: U-251
UACC-257 = system: UACC-257
UACC-62 = system: UACC-62

## CCCn1c2ccccc2c2ccc3c(c21)C(=O)C=CC3=O
A498
  GI50: > 10 µM (inactive)
CCRF-CEM
  GI50: 0.204 µM (active)
HCC 2998
  GI50: > 9.68 µM (inactive)
HCT-116
  GI50: 1.63 µM (inactive)
HOP-92
  GI50: 1.85 µM (inactive)
K562
  GI50: 0.561 µM (active)
M14
  GI50: 2.18 µM (inactive)
MDA-N
  GI50: 2.65 µM (inactive)
NCI-H23
  GI50: 2.58 µM (inactive)
OVCAR-4
  GI50: 1.88 µM (inactive)
OVCAR-8
  GI50: 2.54 µM (inactive)
SF-295
  GI50: > 10 µM (inactive)
SK-MEL-5
  GI50: > 7.91 µM (inactive)
SNB-75
  GI50: > 10 µM (inactive)
SR
  GI50: 0.719 µM (active)
SW-620
  GI50: 1.16 µM (inactive)
U-251
  GI50: > 7.59 µM (inactive)
UACC-257
  GI50: 1.78 µM (inactive)
UACC-62
  GI50: 4.13 µM (inactive)

## Cc1ccc2c(c1)C(C1Cc3c(C)cccc3C1=O)OC2=O (stereo not drawn)
A498
  GI50: > 100 µM (inactive)
CCRF-CEM
  GI50: > 100 µM (inactive)
HCC 2998
  GI50: > 100 µM (inactive)
HCT-116
  GI50: > 100 µM (inactive)
HOP-92
  GI50: > 100 µM (inactive)
K562
  GI50: > 100 µM (inactive)
M14
  GI50: > 100 µM (inactive)
MDA-N
  GI50: > 100 µM (inactive)
NCI-H23
  GI50: > 100 µM (inactive)
OVCAR-4
  GI50: > 100 µM (inactive)
OVCAR-8
  GI50: > 100 µM (inactive)
SF-295
  GI50: > 100 µM (inactive)
SK-MEL-5
  GI50: > 100 µM (inactive)
SNB-75
  GI50: 87.7 µM (inactive)
SR
  GI50: 91.6 µM (inactive)
SW-620
  GI50: > 100 µM (inactive)
U-251
  GI50: 78 µM (inactive)
UACC-257
  GI50: > 100 µM (inactive)
UACC-62
  GI50: > 100 µM (inactive)

## CC(=O)SC(C[N+](=O)[O-])c1ccc2c(c1)OCO2 (stereo not drawn)
A498
  GI50: 3.02 µM (inactive)
CCRF-CEM
  GI50: 4.8 µM (inactive)
HCC 2998
  GI50: 1.73 µM (inactive)
HCT-116
  GI50: 2.31 µM (inactive)
HOP-92
  GI50: 12 µM (inactive)
K562
  GI50: 3.38 µM (inactive)
M14
  GI50: 5.9 µM (inactive)
MDA-N
  GI50: 2.1 µM (inactive)
NCI-H23
  GI50: 5.89 µM (inactive)
OVCAR-4
  GI50: 13.6 µM (inactive)
OVCAR-8
  GI50: 13.6 µM (inactive)
SF-295
  GI50: 10.9 µM (inactive)
SK-MEL-5
  GI50: 6.95 µM (inactive)
SNB-75
  GI50: 9.59 µM (inactive)
SR
  GI50: 2.5 µM (inactive)
SW-620
  GI50: 3.24 µM (inactive)
U-251
  GI50: 5.37 µM (inactive)
UACC-257
  GI50: 9.1 µM (inactive)
UACC-62
  GI50: 5.62 µM (inactive)

## O=C(O)C(Cc1cc(I)c(O)c(I)c1)C1CCCCC1 (stereo not drawn)
A498
  GI50: 21.3 µM (inactive)
CCRF-CEM
  GI50: 51.1 µM (inactive)
HCC 2998
  GI50: 27.2 µM (inactive)
HCT-116
  GI50: 26.5 µM (inactive)
HOP-92
  GI50: 33.5 µM (inactive)
K562
  GI50: 66.2 µM (inactive)
M14
  GI50: 45.5 µM (inactive)
MDA-N
  GI50: 43.5 µM (inactive)
NCI-H23
  GI50: 24 µM (inactive)
OVCAR-4
  GI50: 59.6 µM (inactive)
OVCAR-8
  GI50: 38.6 µM (inactive)
SF-295
  GI50: 35.6 µM (inactive)
SK-MEL-5
  GI50: 22.4 µM (inactive)
SNB-75
  GI50: 37.6 µM (inactive)
SR
  GI50: 33.1 µM (inactive)
SW-620
  GI50: 58.9 µM (inactive)
U-251
  GI50: 22.3 µM (inactive)
UACC-257
  GI50: 45.3 µM (inactive)
UACC-62
  GI50: 33.1 µM (inactive)

## CC(NC1=CC(=O)c2ncccc2C1=O)C(O)c1ccccc1 (stereo not drawn)
A498
  GI50: 13.4 µM (inactive)
CCRF-CEM
  GI50: 5.75 µM (inactive)
HCC 2998
  GI50: 10.2 µM (inactive)
HCT-116
  GI50: 3.6 µM (inactive)
HOP-92
  GI50: 13.2 µM (inactive)
K562
  GI50: 2.04 µM (inactive)
M14
  GI50: 2.57 µM (inactive)
MDA-N
  GI50: 1.58 µM (inactive)
NCI-H23
  GI50: 1.62 µM (inactive)
OVCAR-4
  GI50: 6.78 µM (inactive)
OVCAR-8
  GI50: 4.37 µM (inactive)
SF-295
  GI50: 3.32 µM (inactive)
SK-MEL-5
  GI50: 1.18 µM (inactive)
SNB-75
  GI50: 2.36 µM (inactive)
SR
  GI50: 8.36 µM (inactive)
SW-620
  GI50: 4.9 µM (inactive)
U-251
  GI50: 2.61 µM (inactive)
UACC-257
  GI50: 1.91 µM (inactive)
UACC-62
  GI50: 2.02 µM (inactive)

## COc1nc(N)c(/N=C/C(OC(C)=O)C(OC(C)=O)C(COC(C)=O)OC(C)=O)c(=O)n1C (stereo not drawn)
A498
  GI50: > 100 µM (inactive)
CCRF-CEM
  GI50: > 100 µM (inactive) and 62.2 µM (inactive)
HCC 2998
  GI50: > 100 µM (inactive)
HCT-116
  GI50: > 100 µM (inactive)
HOP-92
  GI50: > 100 µM (inactive)
K562
  GI50: > 100 µM (inactive)
M14
  GI50: > 100 µM (inactive)
MDA-N
  GI50: > 100 µM (inactive)
NCI-H23
  GI50: > 100 µM (inactive)
OVCAR-4
  GI50: > 100 µM (inactive)
OVCAR-8
  GI50: > 100 µM (inactive)
SF-295
  GI50: > 100 µM (inactive)
SK-MEL-5
  GI50: > 100 µM (inactive)
SNB-75
  GI50: > 100 µM (inactive)
SR
  GI50: > 100 µM (inactive)
SW-620
  GI50: > 100 µM (inactive)
U-251
  GI50: > 100 µM (inactive)
UACC-257
  GI50: > 100 µM (inactive)
UACC-62
  GI50: > 100 µM (inactive)

## CN(CCCNC(=O)c1c2ccc3ccccc3c2nn1C)CCCNC(=O)c1c2ccc3ccccc3c2nn1C
A498
  GI50: 6.9 µM (inactive)
CCRF-CEM
  GI50: 8.18 µM (inactive)
HCC 2998
  GI50: 1.87 µM (inactive)
HCT-116
  GI50: 4.76 µM (inactive)
HOP-92
  GI50: 3.21 µM (inactive)
K562
  GI50: 3.48 µM (inactive)
M14
  GI50: 2.05 µM (inactive)
MDA-N
  GI50: 2.96 µM (inactive)
NCI-H23
  GI50: 15.1 µM (inactive)
OVCAR-4
  GI50: 11.7 µM (inactive)
OVCAR-8
  GI50: 13.3 µM (inactive)
SF-295
  GI50: 4.29 µM (inactive)
SK-MEL-5
  GI50: 2.23 µM (inactive)
SNB-75
  GI50: 8.2 µM (inactive)
SR
  GI50: 3 µM (inactive)
SW-620
  GI50: 7.74 µM (inactive)
U-251
  GI50: 7.85 µM (inactive)
UACC-257
  GI50: 1.9 µM (inactive)
UACC-62
  GI50: 1.87 µM (inactive)

Reference: ChEMBL document CHEMBL1201862, “PubChem BioAssay data set” (2004)
